Consider 5 compounds from paper PMC9574860, “Chemical Toolkit for PARK7: Potent, Selective, and High-Throughput” (Journal of Medicinal Chemistry, 2022).

In assay [1] the test system is DUBs. Nature of the assay: DUB activity profiling in HEK293T cell lysate with general DUB probe Rho-Ub-PA. It counts as biochemical. The note with it: compound 5 μM 1 h 37 °C, then Rho-Ub-PA 30 min, Figure S5. On the procedure: Due to the structural similarity of PARK7 inhibitor JYQ-88 and UCHL1 inhibitor 8RK64 and the fact that many cyanimide-containing compounds have been identified as DUB inhibitors,[35],[37] we investigated the inhibitory potential of JYQ-88 and JYQ-92 toward DUBs. After treating the HEK293T cell lysate with JYQ-88 and JYQ-92, along with UCHL1 inhibitors, 6RK73 and 8RK64 as controls,[38] the remaining activity of DUBs was determined using the general DUB probe Rho-Ub-PA (Figure S5).[39]
Figure S5. Fluorescence labeling of DUBs to investigate their remaining activity by Rh-Ub-
PA after the treatment with PARK7 inhibitor JYQ-88 and probe JYQ-92. UCHL1 inhibitors,
6RK73 and 8RK64, were used as a control. HEK293T cell lysate was treated with 5 μM final
MOPS SDS running buffer (Novex, NuPAGE) and visualized by fluorescence scanning on a
Typhoon FLA 9500 (GE Healthcare Life Sciences) using a Rhodamine channel (λex/em
(1 picture or pasted object on this page, not shown here)

Assay [2] concerns PARK7 and UCHL1. The experiment in a line: Labeling of a mixture of purified recombinant UCHL1 and PARK7 with probe 8RK59 (SDS-PAGE, fluorescence scanning). It counts as binding. Particulars: UCHL1 and PARK7 1 μM each, probe 2 μM, 30 min 37 °C. On the procedure:
To determine the labeling efficiency of 8RK59 for both UCHL1 and PARK7, a mixture of equal amounts of purified recombinant UCHL1 and PARK7 (1 μM each) is labeled with 8RK59 (2 μM). […] To gain more insight into the inhibitor binding mode and to guide the design of novel PARK7 inhibitors, the crystal structure of the PARK7–8RK64 complex was solved with 1.21 Å resolution (Figure 2C, Table S1, PDB 7PA2). The structure is obtained as a monomer and compared to its apo structure (PDB 1J42). […] Globally, the inhibitor fits into a groove between two α-helices formed by residues 76–84 and 126–134 (Figure 2C, left panel). The covalent bond between 8RK64 and PARK7 is clearly visible (Figure 2C, middle panel). The cyanimide moiety of the inhibitor reacted to active site Cys106, thereby forming an isothiourea linkage, which is similar to what has been observed for the reaction of cyanamide-based and azanitrile inhibitors with cathepsins.[33],[34] The isothiourea moiety is stabilized by an H-bond between the NH and the carboxylate side chain of the nearby Glu18. Another interaction is found between the thiazole ring amine in the inhibitor and the amide NH2 of the Asn76 side chain. Hydrogen bonding between the carbonyl of the azidoacetyl moiety and the Leu128 backbone carbonyl via a water molecule is also observed. […]

Assay [3] has as its target T1, UCHL1 (Homo sapiens, UniProt P09936).
T1 sequence (P09936 1-223): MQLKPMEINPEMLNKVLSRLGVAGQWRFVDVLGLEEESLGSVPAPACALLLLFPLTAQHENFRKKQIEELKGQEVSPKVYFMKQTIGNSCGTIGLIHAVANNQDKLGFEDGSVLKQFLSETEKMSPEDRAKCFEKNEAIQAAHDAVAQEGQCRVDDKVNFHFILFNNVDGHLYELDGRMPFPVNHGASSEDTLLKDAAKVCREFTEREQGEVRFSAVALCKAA
The experiment in a line: Gel-based competition assay with probe 8RK59, UCHL1 band. It counts as biochemical. Particulars: compound 2 μM, 1 h; PARK7 and UCHL1 1 μM each; then 8RK59 2 μM 30 min; Figure 3B. On the procedure:
To assess the inhibitory potency and selectivity of these compounds toward PARK7 and UCHL1, we performed a gel-based competition assay (Figure 3A).[36] A mixture of equal amounts of PARK7 and UCHL1 (1 μM) was treated with each of the synthesized compounds (2 μM) for 1 h, followed by incubation with fluorescent probe 8RK59 (2 μM) for 30 min. Samples were resolved by SDS-PAGE, and the gel was scanned for fluorescence. Inhibition of PARK7 or UCHL1 is reflected by the disappearance of their corresponding bands (Figure 3B). […] The inhibition potential of JYQ-88 against PARK7 was assessed in a similar assay where PARK7 was incubated with a serial dilution of JYQ-88 before treatment with probe 8RK59 (Figure 3C). A clear inhibition is visible at 0.5 μM, and full inhibition is achieved between 1 and 2 μM. […] The selectivity of JYQ-88 between UCHL1 and PARK7 was further confirmed in a direct competition assay between equal amounts of PARK7 and UCHL1 (Figure 3F). PARK7 inhibition was observed starting from 0.5 μM JYQ-88, whereas inhibition of UCHL1 was only detected at 20 μM. Since JYQ-88 and 8RK64 are enantiomers, we assumed that the interactions with PARK7 should be similar. To investigate how the chiral center influences the selectivity, we solved the crystal structure of the PARK7−JYQ-88 complex with 1.42 Å resolution (Figure 3G, Table S1, PDB 7PA3). The global positioning of the inhibitor in between the two α-helices was similar to that for 8RK64. […] This way, the thiazolo-pyridine part of JYQ-88 is bound in a similar manner as 8RK64 and the earlier observed interactions are largely the same. The formation of the isothiourea moiety, stabilized by the interaction with Glu18, and the interaction between the thiazole amine and the amide NH2 of the Asn76 side chain are still present. However, the interaction between the azidoacetyl carbonyl with the Leu128 backbone carbonyl can no longer be observed due to the rotation of the azidoacetyl moiety. The Lys132 residue also seems to have rotated (compared to Figure 2C).
The assay was performed in Tris buffer as described above.

Assay [4] has as its target T1, UCHL1. The experiment in a line: UCHL1 activity assay (Ub-Rho-Morpholine or Ub-AMC substrate). The note with it: UCHL1 1 nM, 1 h preincubation; Figure 3E; read-out: UCHL1 IC50. It counts as biochemical. On the procedure: The assay was performed in a buffer containing 50 mM Tris·HCl, 100 mM NaCl at pH 7.5, 2.0 mM cysteine, 1 mg/mL 3-[(3-cholamidopropyl)dimethylammonio]propanesulfonic acid (CHAPS), and 0.5 mg/mL bovine serum albumin and conducted in a 384-well plate (Corning 3820) with a reaction volume 20 μL in triplicate. The compounds were dissolved in DMSO as 10, 1, and 0.1 mM stock solutions and were transferred to obtain a 12-point serial dilution of 0.05 to 200 μM. Next, UCHL1 (15 μL, final concentration of 1 nM) was dispensed with a Biotek MultiFlowFX liquid dispenser and incubated for 1 h, followed by dispensing the substrate Ub-Rho-Morpholine or Ub-AMC (5 μL, final concentration of 400 nM). The FI signal was monitored with a BMG Labtech PHERAstar plate reader (λex/em 487/535 nm or λex/em 350/450 nm) for 1 h. N-Ethylmaleimide (NEM, 10 mM) was used as a positive control (100% inhibition), and DMSO was used as a negative control (0% inhibition). All samples were normalized to the positive and negative controls and plotted against the inhibitor concentrations (in μM) using the built-in equation “[inhibitor] vs response – variable slope (four parameters), least-squares fit” with constraints “Bottom = 0” and “Top = 100” in GraphPad Prism 9.0.1 software to obtain the IC50 values.

The target of assay [5] is T2, PARK7 (Homo sapiens, UniProt Q99497).
T2 sequence (Q99497 1-189): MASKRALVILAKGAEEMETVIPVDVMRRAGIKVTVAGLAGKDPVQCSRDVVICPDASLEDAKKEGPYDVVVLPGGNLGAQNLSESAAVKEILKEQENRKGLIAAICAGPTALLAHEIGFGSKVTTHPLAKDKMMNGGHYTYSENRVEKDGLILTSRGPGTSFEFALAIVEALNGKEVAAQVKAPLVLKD
The experiment in a line: FP assay with Rhodamine110 probe JYQ-107 (IC50 and hit validation). It counts as binding. More on the design: GST (N, cleaved yes); made in house; host or cells: E. coli BL21(DE3) Rosetta2. The note with it: PARK7 0.2 μM, 1 h preincubation, JYQ-107 20 nM; for inhibition at 12.5 µM: 12.5 µM compound, read-out: FP assay %Inhibiton (12.5 µM); for inhibition at 37.5 µM: 37.5 µM compound, read-out: FP assay %Inhibiton (37.5 µM); for inhibition at 100 µM: 100 µM compound, read-out: FP assay %Inhibiton (100 µM).

The target of assay [6] is T2, PARK7. The experiment in a line: DiFMUAc PARK7 activity assay. It counts as biochemical. Also on record: GST (N, cleaved yes); made in house; host or cells: E. coli BL21(DE3) Rosetta2. Particulars: PARK7 0.1 μM, 2 h preincubation, DiFMUAc 300 μM; for inhibition at 12.5 µM: 12.5 µM compound, read-out: DiFMuAc assay %Inhibiton (12.5 µM); for inhibition at 37.5 µM: 37.5 µM compound, read-out: DiFMuAc assay %Inhibiton (37.5 µM); for inhibition at 100 µM: 100 µM compound, read-out: DiFMuAc assay %Inhibiton (100 µM). On the procedure: Compounds were transferred using a Labcyte Echo550 acoustic dispenser to obtain a 12-point serial dilution of 0.001 to 100 μM. Next, PARK7 (15 μL, final concentration of 0.1 μM) was dispensed with a Biotek MultiFlowFX liquid dispenser and incubated for 1 h, followed by dispensing the substrate DiFMUAc (5 μL, final concentration of 300 μM). The fluorescence intensity (FI) signal was monitored with a BMG Labtech PHERAstar plate reader (λex/em 350/450 nm) for 1 h.
The validation was performed in the PBS buffer with a reaction volume of 20 μL per well in triplicate. […] Next, PARK7 (15 μL, final concentration 0.1 μM) was dispensed with a Biotek MultiFlowFX liquid dispenser and incubated for 2 h, followed by dispensing the substrate DiFMUAc (5 μL, final concentration 300 μM). The FI signal was monitored with a BMG Labtech PHERAstar plate reader (λex/em 350/450 nm) for 1 h. The increase of FI signal compared with reference controls was used to calculate the remaining enzyme activity. The inhibition percentage of these 22 compounds was plotted as a heatmap using GraphPad Prism 9.0.1 software. Color gradients indicate inhibition percentage, no inhibiton (white) and full inhibition (blue).

In assay [7] the target is T2, PARK7. Nature of the assay: Gel-based competition assay in HEK293T cell lysate with probe JYQ-92. It counts as biochemical. The note with it: fragment 0.1–50 μM 2 h 37 °C, then JYQ-92 1 μM 30 min, Figure 6E. More on the design: GST (N, cleaved yes); made in house; host or cells: E. coli BL21(DE3) Rosetta2. The source says:
We next assessed whether we could measure the inhibitory activity of an inhibitor against PARK7 in a cell lysate using JYQ-92 to label the remaining activity of PARK7. […] The disappearance of the labeling band is a measure for inhibition.

For `N#CN1CC[C@H](C(=O)Nc2ncc(N3CCOCC3)s2)C1` [6RK73, reference compound], the “Effect on remaining DUB activity (Rho-Ub-PA labeled bands)” value in assay [1] is on record as “disappearance of the UCHL1 band”.
On to `CC1=CC(C)=[N+]2C1=C(CCCCc1cn(CC(=O)N3CCc4nc(NC(=O)[C@H]5CCN(C#N)C5)sc4C3)nn1)c1c(C)cc(C)n1[B-]2(F)F` [8RK59], for which the “Labeling of PARK7 and UCHL1 by probe” value in assay [2] is reported as “nearly equal extent”.
As for `N#CN1CC[C@H](C(=O)Nc2nc3c(s2)CN(C(=O)CN=[N+]=[N-])CC3)C1` [8RK64, reference compound], the “Inhibition of UCHL1 (disappearance of 8RK59-labeled band)” value in assay [3] is listed as “fully inhibit”. Moreover, in assay [1], the “Effect on remaining DUB activity (Rho-Ub-PA labeled bands)” value is on record as “disappearance of the UCHL1 band”. For the same compound, the IC50 in assay [4] was 230 nM.
On to `CCC(C)c1ccc(NC(=O)CCl)cc1` (stereo not shown) [Z56886389], for which, in assay [5], the inhibition at 12.5 µM came out at 100%, the inhibition at 37.5 µM was determined as 100% and the inhibition at 100 µM is 100%. Moreover, in assay [6], the inhibition at 12.5 µM worked out at 95.8%, the inhibition at 37.5 µM was found to be 95.2% and the inhibition at 100 µM was determined as 97.1%. Moreover, the “Ability to inhibit PARK7 in a cell lysate” value in assay [7] was “confirmed”.
Take `O=C(O)c1csc(C(=O)CCl)c1` [Z763366298]: in assay [5], the inhibition at 12.5 µM is 100%, the inhibition at 37.5 µM amounted to 100% and the inhibition at 100 µM was 100%. Also, in assay [6], the inhibition at 12.5 µM came out at 97.9%, the inhibition at 37.5 µM is 97.6% and the inhibition at 100 µM worked out at 97.3%. For the same compound, in assay [7], the “Ability to inhibit PARK7 in a cell lysate” value is given as “confirmed”.

As usually defined, the IC50 is the concentration at which inhibition is half-maximal.
